Among the data in ChEMBL document CHEMBL1149051, “Isolation of flavins from the Amazonian shrub Faramea guianesis” (1994) are inhibition and survival values, retold here.

As a reminder, the inhibition is the relative decrease from the control value, in per cent.

Holding throughout (type): functional
The test system of experiment [1] is Leishmania amazonensis. Description: Antileishmanial activity against Leishmania amazonensis H142 Guianese amastigotes in BALB/c mouse macrophages assessed as inhibition of infection at 0.05 mg/ml relative to control.
The subject of experiment [2] is Leishmania amazonensis. Description: Antileishmanial activity against Leishmania amazonensis H142 Guianese amastigotes in BALB/c mouse macrophages assessed as survival of peritoneal macrophages at 0.25 mg/ml relative to control.
Experiment [3] deals with Leishmania amazonensis. Description: Antileishmanial activity against Leishmania amazonensis H142 Guianese amastigotes in BALB/c mouse macrophages assessed as inhibition of infection at 0.02 mg/ml relative to control.
In experiment [4] the test system is Leishmania amazonensis. The experiment in a line: Antileishmanial activity against Leishmania amazonensis H142 Guianese amastigotes in BALB/c mouse macrophages assessed as inhibition of infection at 0.04 mg/ml relative to control.

With `Oc1ccc(C2CCc3c(O)cc(O)cc3O2)cc1` (centres undefined), the inhibition at 50 µg/mL in the experiment with Leishmania amazonensis [1] was 57%. For the same compound, in the experiment with Leishmania amazonensis [2], the survival at 250 µg/mL stood at 0%. The inhibition at 20 µg/mL in the experiment with Leishmania amazonensis [3] worked out at 100%. Also, the inhibition at 40 µg/mL with Leishmania amazonensis [4] was 100%.
